Laboratory results published in patent US6569846B1, “Palladium-substituted bacteriochlorophyll derivatives and use thereof” (Yeda Research and Development Co. Ltd., priority 1998, dated 2003).
Values joined by “and” are separate entries in the source; they are usually repeats but may differ in a detail not shown here. Equal entries are not always repeated.

Columns and labels:
[1] = Stability of Pd-BPheid solutions by HPLC profile; format: physicochemical
Description: A reverse phase HPLC method was developed to characterize the impurity profile and quantify the Palladium-BPheid.
Solutions of Pd-BPheid stored in acetone at −20° C. were stable for at least 2-month period.

[2] = test system: HDL, LDL, Albumin fractions of human serum; assay: Plasma lipoprotein binding (density-gradient centrifugation); format: in vitro ADME; conditions: 3 μM, 30 min at 37° C.
Description: (iv) Lipoprotein binding: Binding of Pd-BPheid to protein and lipoprotein compound of control human plasma was determined. Incubation of 250 μl plasma sample with 3 μM of the compound for 30 min at 37° C. Lipoprotein and protein components were then separated by density-gradient centrifugator. The gradients were fractionated, fractions diluted into 3 ml of 10 mM Triton X-100 detergent or of fluorescence at 750-800 nm determined upon excitation at 400 nm.

[3] = test system: C3H/BA mammary carcinoma; assay: In vivo PDT of BA mammary carcinoma; parameters: key to Summary (cures), symbol: −: no response
Description: Photodynamic therapy parameters: Mice with tumors measuring 5-7 mm in diameter were entered into PDT experiments. Three Pd-BPheid drug doses (1, 5 and 10 mg/kg) and two light doses (100 and 300 Joules/sq.cm) were evaluated. A formulation of Pd-BPheid dissolved in Cremophor was administered by i.v. tail injection. PDT light exposure was started either 15 minutes, 1 hour or 4 hours following injection. […] A titanium sapphire laser tuned to 757 nm was used as the light source for PDT. Laser generated light was coupled into quartz fibers for delivery of light to tumors. A light power density of 75 mW/sq.cm was used. Tumor size was measured 3 days per week following PDT treatments and the percentage of tumor cures (defined as no tumor recurrence for 40 days post treatment) was determined.
In vivo PDT Response: Tables 4 and 5 hereinafter provide summaries of the PDT treatment results for C3H mice transplanted with either the BA mammary carcinoma or the RIF-1 fibrosarcoma. Each table indicates the following parameters: 1) intravenous drug dose expressed in mg/kg; 2) laser treatment parameters, including the total light dose (J/cm^2), the wavelength (757 nm), the light dose rate (mW/cm^2), and the time interval ([…], 4) toxicity (four mice died shortly after treatment), 5) tumor regrowth (consisting of the number of days between PDT treatment and tumor recurrence) and 6) the number of mice (and percentage) with Pd-BPheid PDT induced tumor cures.

[4] = test system: M2R mouse melanoma tumors; assay: In vivo PDT of M2R melanoma tumors; parameters: species or system CD1 nude mice; conditions: 2.5 mg/Kg i.v., illuminated 30 min at 300 mW cm^−2; within 24 h
Description: (iv) Tumor implantation: Mice were implanted with 10^6 M2R cells on the back and tumors arose to the treatment size (7-8 mm) within 2-3 weeks.
(v) Light source: Osram 150 W halogen photo-optic lamp 64643 (D. K. Keller et al 1999, Int. J. Hyperthermia 15, 467-474) equipped with λ=650-900 mn spectral window, 300 mW/cm^−2. Illumination was for 30 min.
(vi) PDT protocol: The anesthetized mouse was i.v injected with the pigment and the tumor immediately illuminated. At the end of treatment the mouse was placed back in the cage. Photographs of the tumor were taken before and at the times indicated.
Preparation of sensitizer: Two mg Pd-BPheid were dissolved in 0.25 ml cremophor EL followed by 20 min sonication. 0.075 ml 1,2-propylene glycol were added and sonication was continued for another 15 min. Then 0.9 ml of […] were added followed by 5 min sonication. The sample was centrifuged for 12 min at 13,000 rpm (Eppendorf). The final calculated concentration of Pd-BPheid based on spectrum in chloroform was 0.5 mg/ml. […]
Preparation of sensitizer: Two mg Pd-BPheid were dissolved in 0.1 ml methanol, 0.1 ml 0.1M KH2PO4, pH=8.0 and 0.9 ml PBS and sonicated for 10 min. […] The sample was centrifuged for 8 min on 13,000 rpm the final calculated concentration of Pd-BPheid based on spectrum in chloroform was 0.5 mg/ml. […]

[5] = test system: A431 human epithelial carcinoid cells
Description: (ii) Light source: Halogen lamp (Osram, Germany, 100 W), with 4.5 cm water filter and cut off filter>650 nm. The cells were illuminated for 10 minutes, 15 mW/cm^2, a total energy fluency of 9 J/cm^2. For illumination, the culture plates were placed on a glass table to provide the light from the bottom.
(iii) Phototoxicity study: A431 cells (5×10^4 cells) were seeded in 3 cm dishes in duplicates and cultured to 75% confluency in Dulbecco's modified Eagle's medium (DMEM)+F12 (1:1), buffered with HEPES (25 mM, pH 7.4), fetal calf serum (FCS) with penicillin (0.06 mg/ml) and streptomycin (0.1 mg/ml). […] After a 4-hour period the cells were washed with culture medium and the cells were illuminated with the light source above. Phase contrast microscopic examination was performed at different time points after illumination (0, 0.5, 4 and 24 hours post-PDT) using Zeiss Axiovert-35 light microscope (magnification X320) equipped with a Contax 35 mm SLR camera. In the second dish of every duplicate, cell viability was assessed 24 hours post-PDT using neutral red viability assay (Zhang S Z., 1990, Cell Biol Toxicol 6(2): 219-234).

[6] = 1 mg/Kg i.v., 300 J/cm^2, 757 nm, 75 mW/cm^2, 15 min. interval
[7] = 5 mg/Kg i.v., 300 J/cm^2, 757 nm, 75 mW/cm^2, 1 HR interval
[8] = 5 mg/Kg i.v., 300 J/cm^2, 757 nm, 75 mW/cm^2, 15 min. interval
[9] = 10 mg/Kg i.v., 100 J/cm^2, 757 nm, 75 mW/cm^2, 1 HR interval
[10] = 10 mg/Kg i.v., 100 J/cm^2, 757 nm, 75 mW/cm^2, 15 min. interval
[11] = 10 mg/Kg i.v., 300 J/cm^2, 757 nm, 75 mW/cm^2, 1 HR interval
[12] = 10 mg/Kg i.v., 300 J/cm^2, 757 nm, 75 mW/cm^2, 4 HR interval

## CC[C@H]1C2=NC(=Cc3c(C(C)=O)c(C)c4[n]3[Pd][n]3c(c(C)c5c3=C(C3=NC(=C4)[C@@H](C)[C@@H]3CCC(=O)O)[C@@H](C(=O)OC)C5=O)=C2)[C@@H]1C [Pd-BPheid, Pd-bacteriopheophorbide a]
[1]; stock solution at room temperature for 18 hours
  change in the HPLC profile: no change in the HPLC profile
[1]; stored in acetone at −20° C.
  period for which solutions were stable: at least 2 month
[2]
  plasma lipoprotein binding, rank order of fractions: HDL>LDL>>>Albumin
[3]; [6]
  Number of Animals with Primary Tumor Regrowth (Days to Recurrence): 1(1 day)
  Summary (cures), symbol: −
  Toxicity (Treatment associated death): 0
[3]; [7]
  Number of Animals with Primary Tumor Regrowth (Days to Recurrence): 1(11 days)
  Summary (cures) %: 66.66%
  Summary (cures), number of animals (days): 2(41 days)
  Toxicity (Treatment associated death): 0
[3]; [8]
  Summary (cures) %: 100%
  Summary (cures), number of animals (days): 2(40 days)
  Toxicity (Treatment associated death): 0
[3]; [9]
  Number of Animals with Primary Tumor Regrowth (Days to Recurrence): 1(5 days)
  Summary (cures) %: 66.66%
  Summary (cures), number of animals (days): 2(40 days)
  Toxicity (Treatment associated death): 0
[3]; [10]
  Summary (cures) %: 100%
  Summary (cures), number of animals (days): 2(42 days)
  Toxicity (Treatment associated death): 0
[3]; [11]
  Summary (cures) %: 100%
  Summary (cures), number of animals (days): 2(41 days) and 1(41 days)
  Toxicity (Treatment associated death): 0
[3]; [12]
  Number of Animals with Primary Tumor Regrowth (Days to Recurrence): 2(1 day)
  Summary (cures), symbol: −
  Toxicity (Treatment associated death): 0
[3]; 4-hour interval between drug administration and light treatment
  effectiveness of PDT: not effective
[3]; comparable PDT treatments
  responsiveness of BA mammary carcinoma compared with RIF-1 fibrosarcoma: more responsive
[3]; light treatments initiated within 1 hour of drug administration
  effectiveness of PDT: effective
[4]
  tumor response to PDT: severe inflammatory response with necrosis of the tumor
[5]; 4-hour incubation, illuminated 10 minutes, 15 mW/cm^2, 9 J/cm^2
  LD90 concentration: 0.1 µM
[5]; after 4 hours post PDT
  cells that lost most of their inner volume: 90%
[5]; post PDT
  time of alteration in the cells membrane structure: 30 min
[5]; sensitizer at LD90 concentration, phase contrast microscopy
  morphological phenotype post PDT: fibrous phenotype
